Experimental data taken from article PMC3850926, “Evaluation of the adverse event profile and pharmacodynamics of toceranib phosphate administered to dogs with solid tumors at doses below the maximum tolerated dose” (BMC Veterinary Research, 2013).
Read-outs that look alike come from different tables or passages of the source.

How the values were obtained:
[1] = system: dogs with MCT; conditions: dog, in vivo, cited from earlier work
[2] = system: AGASACA, thyroid carcinomas, head and neck carcinomas, nasal tumors; set-up: method as in PMID 22236194; conditions: median dose 2.8 mg/kg, cited from earlier work
[3] = system: target receptor tyrosine kinases; set-up: method as in PMID 12538485; conditions: established in rodent studies; cited from earlier work
[4] = cited from earlier work
[5] = Toceranib plasma concentrations (LC-MS/MS) in dogs with solid tumors; assay type: in vivo, dog; conditions: for Cmax: dog, plasma, oral
Procedure: (§1) A total of 40 dogs were enrolled in this study, with dogs initially assigned to toceranib at 2.5 mg/kg or 2.75 mg/kg EOD. All dogs were placed on famotidine at 0.5-1 mg/kg once per day at study initiation and owners were instructed to administer the toceranib in the morning with food. Physical examination, routine bloodwork (CBC, biochemistry profile) and blood sampling for assessment of toceranib and VEGF plasma concentrations was performed pretreatment and on days 0, 7, 14 and 30 of treatment. […] Owners of dogs that experienced CR, PR, or SD at study day 30 were offered the option of continuing toceranib administration for an additional 6 months (provided at no cost), although patient data was not officially captured beyond day 30.
Blood was collected into EDTA tubes and centrifuged at 3000 × g for 10 minutes. Plasma was then collected and split evenly into two portions in cryovials, then stored at -80°C until analysis was performed for toceranib and VEGF concentrations.
Toceranib was quantitated in plasma samples using the method previously described. Briefly, 50 μL aliquots of plasma were fortified with an internal standard (IS), a deuterated toceranib analog. Toceranib and the IS were extracted from the plasma by protein precipitation using acetonitrile. The analyte and IS are light sensitive and undergo photoisomerization when exposed to light. Therefore, the 96-well plates were protected from light by wrapping the bottom and sides with foil and securing with adhesive tape. Calibration standards (1 to 1000 ng/mL) and quality control (QC) samples were prepared with separate weighing of toceranib reference material (Pfizer, Kalamazoo, MI, 98.1% purity). Standard and QC solutions were prepared by serially diluting a stock solution (100 μg/mL in methanol) into control canine plasma so that no standard or QC sample contained more that 1% methanol. Study samples were analyzed as single replicates.
The prepared samples were injected onto a Zorbax StableBond CN column and elution of toceranib and the IS accomplished with an acetonitrile:15 mM ammonium formate solution (pH 3.25) 30/70 v/v mobile phase with a 80/20 v/v rinse for 2.3 minutes at 5 minutes after each injection. Detection was accomplished using MS/MS using a Sciex 4000 triple-quadrupole mass spectrometer with Turboionspray ionization source (MDS Sciex, Toronto, Canada). Transition ions of m/z 397.2 → 283.2 for toceranib and 401.3 → 283.2 for the IS were used. The standard curves were generated using peak area ratios of toceranib to the IS and a 1/concentration^2 weighted quadratic regression. Toceranib concentrations were determined by interpolation over the quantitation range of 1.00 ng/mL to 1000 ng/mL.

[6] = system: solid tumors; assay: Tumor response assessment (RECIST v.1.1); assay type: in vivo, dog
Procedure: as §1
Tumor assessments were performed on days 0, 7, 14 and 30 of study. Tumor assessment was performed using caliper measurement with digital photography documentation, thoracic radiography, ultrasonography, or spiral computerized tomography (CT) as indicated. Determination of antitumor efficacy was based on objective tumor assessments made according to the RECIST v.1.1 guidelines using unidimensional measurements. Response to therapy was defined as complete response (CR, resolution of all target and non-target lesions, no new lesions), partial response (PR, at least 30% decrease in the longest diameter of target lesions, no progression of non-target lesions, and no new lesions), stable disease (SD, decrease in target lesions of less than 30% or increase of target lesions less than 20%, no progression of non-target lesions, and no new lesions) or progressive disease (PD, greater than 20% increase in target lesions, progression of non-target, new lesions). Dogs were defined as experiencing clinical benefit if they had CR, PR, or SD.

[7] = system: dogs with a variety of tumors; set-up: method as in PMID 12855656; conditions: cited from earlier work

## Cc1[nH]c(/C=C2\C(=O)Nc3ccc(F)cc32)c(C)c1C(=O)NCCN1CCCC1 [toceranib, Toceranib phosphate]
[1]; 3.25 mg/kg
  dogs with dose changed (drug holiday and/or dose reduction): 48.3%
[1]
  dogs that had a dose reduction due to AEs: approximately 20%
[2]
  clinical benefit rate (CR + PR + SD): exceeding 80%
[2]; varied by tumor type
  objective response rates: 25-75%
[3]
  plasma concentration threshold for receptor (target) inhibition in vivo: 40 ng/mL
[4]; healthy beagle dogs
  dose proportionality of Cmax: proportional to doses ranging from 2.0 to 6.0 mg/kg
[4]; previous studies
  time of maximum drug concentration (Tmax): 5.3 to 9.3 h
[4]; prior studies
  time of Cmax post drug administration: 6 to 8 h
[5]; EOD regimen, levels out by day 30
  course of presumed Cmax plasma concentration: increased gradually in most dogs over the first 2 weeks of dosing
[5]; day 30
  dogs with Cmax at 12 hours (number): 12 dogs
[5]; day 30, the 12 dogs with Cmax at 12 hours
  reported Cmax as percent of the 12 hour concentration: 51% to 98%
[5]; all dose ranges above 2.4 mg/kg, days 0, 7, 14, 30, read-out: median Cmax
  Cmax: > 40 ng/mL
[5]; dose ranges 2.4-2.9 mg/kg EOD, by day 30, read-out: mean presumed Cmax
  Cmax: 100 to 200 ng/mL
[5]; dogs dosed 2.4-2.9 mg/kg EOD
  Median plasma concentration measured at 6 or 8 hours, level after first two weeks: 100 to 120 ng/mL
[5]; dogs dosed 2.4-2.9 mg/kg, each time point
  difference among dosing groups in 6 or 8 hour drug concentrations (presumed Cmax): no significant difference
[5]; dogs dosed at 2.30-2.39 mg/kg (3 dogs)
  plasma drug concentration relative to the other dose groups: lower concentrations of drug at all time points
[5]; dogs with solid tumors, 2.4-2.9 mg/kg every other day
  average 6–8 hr plasma concentration: 100 to 120 ng/mL
[6]; 35 of the 40 dogs
  average time dogs remained on toceranib after day 30: 16.7 weeks
[6]; Nasal carcinoma, N 5
  PD (number of dogs): 2
[6]; Salivary gland adenocarcinoma, N 1
  PR (number of dogs): 1
[6]; Soft tissue sarcoma, N 7
  PD (number of dogs): 2
[6]; Squamous cell carcinoma, N 4
  PR (number of dogs): 2
[6]; Thyroid carcinoma, N 7
  PR (number of dogs): 2
[6]; over 30 days
  clinical benefit (number of dogs): 36/40
[6]; over 30 days, 40 dogs
  PD (number of dogs), all tumor types: 4 dogs
  PD (percent of dogs): 10%
  PR (number of dogs), all tumor types: 5/40
  PR (percent of dogs): 12.5%
  overall clinical benefit rate (CR + PR + SD): 90%
[6]; thyroid carcinoma
  dogs that transitioned from SD to PR after day 30: one
[6]; two SCC and one salivary gland adenocarcinoma
  dogs that transitioned to CR after day 30: 3 dogs
[7]; 2.5 mg/kg EOD, 16 dogs
  complete responses, CR (number of dogs): 4
  objective response (number of dogs): 6 dogs
  objective response (percent): 37.5%
  partial responses, PR (number of dogs): 2
  stable disease, SD (number of dogs): 5 dogs
[7]; 3.25 mg/kg EOD, 20 dogs
  CR (number of dogs): 2
  PR (number of dogs): 6
  objective response (number of dogs): 8
